Results from paper PMC8416020 (eLife, 2021).
Entries after “also recorded” stand apart in the source; their conditions may differ. Where no end group is shown, it is not given here.

How the values were obtained:
isolated GHSR = details: ghrelin versus SPA; ref Mary et al., 2012; cited from earlier work
Text: We then used 7H4MC fluorescence to monitor the impact of ligand binding on the hydration pattern of GHSR.

GHSR = details: ref M'Kadmi et al., 2015; cited from earlier work
7H4MC-labeled GHSR = experiment: Hydration parameter H from 7H4MC fluorescence emission, several positions together; assay type: biochemical, human; details: positions besides 5.58 and 6.44; saturating ligand (10 µM); vs apo
Text: (§1) We then investigated whether the fluorescence properties of 7H4MC-ethylglycine could report on the local hydration features of GHSR. To this end, we analyzed the 7H4MC emission profile for each of the positions considered. An excitation wavelength of 320 nm was systematically used to excite the neutral form of the fluorophore ([Amaro et al., 2015]). The emission spectra were deconvoluted into their separate components using the procedure initially described ([Amaro et al., 2015]). A hydration parameter H was then determined that corresponded to the sum of the contributions of the anionic and tautomer forms. This parameter is an indicator of the extent of hydration at the position considered, as the higher the H parameter the higher local hydration ([Amaro et al., 2015]). A difference in the H parameter inferred for the 7H4MC probe at the different positions of the apo GHSR was observed depending on the position considered (Figure 2—figure supplement 1, 2).
Figure 2. Local hydration of growth hormone secretagogue receptor (GHSR) as a function of ligands. […] All ligands were used at a 10 µM concentration. […] The spectra were recorded in the absence of ligand. […] The excitation wavelength was set to 320 nm with an emission intensity recorded between 340 and 600 nm. […] The excitation wavelength was set to 320 nm with an emission intensity recorded between 340 and 600 nm. […]

[1] = tested on: GHSR F272^6.44 to alanine mutant; details: mutating F272^6.44 to alanine; ref Valentin-Hansen et al., 2012; cited from earlier work
Text: (§2) The fluorescent probe was introduced at different positions along GHSR sequence. […] The absence of major effect on substituting F272^6.44 with 7H4MC-ethylglycine on GHSR functioning was puzzling, as mutating this residue to an ala ...

GHSR F272^6.44 mutants = details: ref Valentin-Hansen et al., 2012, cited from earlier work
Text: as §2

[2] = tested on: GHSR labeled at I134^3.43, Y232^5.58, V268^6.40, F272^6.44, and S315^7.45; experiment: Effect of 7H4MC-ethylglycine labeling on ghrelin binding and Gq activation; assay type: biochemical, human; details: positions I134^3.43, Y232^5.58, V268^6.40, F272^6.44, S315^7.45
[3] = tested on: GHSR labeled with 7H4MC-ethylglycine at Y232^5.58; experiment: Hydration parameter H from 7H4MC fluorescence emission; assay type: biochemical, human; details: for H parameter: 5.58
Text: as §1
(§3) Figure 2. Local hydration of growth hormone secretagogue receptor (GHSR) as a function of ligands. […] All ligands were used at a 10 µM concentration. In all cases, the data represents the mean value ± SD of three experiments. Statistical analyses are provided in […]—figure supplement 2 and 4. Figure 2—source data 1. H parameter for GHSR and its mutants. Figure 2—figure supplement 1. Emission spectra of L-(7-hydroxycoumarin-4-yl) (7H4MC)-ethylglycine incorporated into isolated growth hormone secretagogue receptor (GHSR). The spectra were recorded in the absence of ligand. The labeling positions are given in a snake-like plot of GHSR ([Shiimura et al., 2020]) (A) (red: positions deleterious to GHSR function; green: positions considered in this work), and then indicated in each panel (B–F). The excitation wavelength was set to 320 nm with an emission intensity recorded between 340 and 600 nm. The gray curve represents the experimental emission spectrum (exp). The red, blue, green, and magenta spectra represent the decomposition of the experimental spectrum into its neutral (N), complexed (C), anionic (A), and tautomeric (T) components, respectively. The orange curve (fit) corresponds to sum of the individual N, C, A, and T curves. Figure 2—figure supplement 1—source data 1. 7-H4MC emission intensity of the apo GHSR mutants. [drawing 7] Figure 2—figure supplement 2. Statistical analysis of the data in Figure 2. […] Data is from Figure 2. […] Structure of the ligands used throughout this work. [drawing 9] Figure 2—figure supplement 4. Statistical analysis of the data in Figure 2. The left panels show the hydration parameter for each of the mutants in the absence or in the presence of ligands. Data are from Figure 2. The right panels show the mean difference between the apo and the ligand-loaded states for each of the mutants with multiplicity-adjusted 95% confidence intervals. [drawing 10] Figure 2—figure supplement 5. Emission spectra of L-(7-hydroxycoumarin-4-yl) (7H4MC)-ethylglycine incorporated at position 5.58 of growth hormone secretagogue receptor (GHSR) in the presence of pharmacologically distinct ligands or phosphatidylinositol-4,5-bisphosphate (PIP2). […] The excitation wavelength was set to 320 nm with an emission intensity recorded between 340 and 600 nm. The black curve represents the experimental emission spectrum (exp). The red one (fit) corresponds to sum of the individual curves after decomposition of the experimental spectrum into its neutral, complexed, anionic, and tautomeric components. Figure 2—figure supplement 5—source data 1. 7-H4MC emission intensity of the GHSR 5.58 mutant in the presence of ligands. [drawing 11] Figure 2—figure supplement 6. […]

[4] = tested on: GHSR labeled with 7H4MC-ethylglycine at F272^6.44; experiment: as above; assay type: biochemical, human; details: for H parameter: 6.44
Text: as §1, §3

[5] = tested on: GHSR labeled with 7H4MC-ethylglycine at S315^7.45; experiment: as above; assay type: biochemical, human; details: ligand 10 µM, POPC:POPG nanodiscs, 15°C, ex 320 nm
Text: as §1, §3

[6] = tested on: GHSR labeled with 7H4MC-ethylglycine at I134^3.43; experiment: as above; assay type: biochemical, human; details: ligand 10 µM, POPC:POPG nanodiscs, 15°C, ex 320 nm
Text: as §1, §3

[7] = tested on: GHSR labeled with 7H4MC-ethylglycine at V268^6.40; experiment: as above; assay type: biochemical, human; details: for H parameter: 6.4, ligand 10 µM, POPC:POPG nanodiscs, 15°C, ex 320 nm
Text: as §1, §3

[8] = ligand 10 µM, POPC:POPG nanodiscs, 15°C, ex 320 nm, replicate 1
[9] = ligand 10 µM, POPC:POPG nanodiscs, 15°C, ex 320 nm, replicate 2
[10] = ligand 10 µM, POPC:POPG nanodiscs, 15°C, ex 320 nm, replicate 3
[11] = Figure 5, 10 µM ghrelin, 2.5% PIP2-to-total lipids molar ratio, replicate 1
[12] = Figure 5, 10 µM ghrelin, 2.5% PIP2-to-total lipids molar ratio, replicate 2
[13] = Figure 5, 10 µM ghrelin, 2.5% PIP2-to-total lipids molar ratio, replicate 3
[14] = Figure 5, 10 µM ghrelin, no PIP2, replicate 1
[15] = Figure 5, 10 µM ghrelin, no PIP2, replicate 2
[16] = Figure 5, 10 µM ghrelin, no PIP2, replicate 3
[17] = saturating ligand (10 µM), vs apo

**Q.** Which “effect of ghrelin and SPA on GHSR activation and conformational landscape” value (isolated GHSR) does the source give for “ghrelin: natural full agonist of GHSR, natural peptide agonist (GSSFLSPEHQRVQQRKESKKPPAKLQPR; not fully specified; ends and bridges not checked; UniProt Q9UBU3 24-51, looked up)” here?
**A.** Its value is “opposite effect of ghrelin and SPA on GHSR activation and conformational landscape”.

**Q.** And the pharmacological class (GHSR)?
**A.** Its pharmacological class is “natural full agonist”.

**Q.** And the “change in the hydration parameter at other positions” value (7H4MC-labeled GHSR)?
**A.** The value was “no relevant change in the hydration parameter”.

**Q.** What about the “ghrelin binding affinity, F272^6.44 to alanine” value [1] of the same substance?
**A.** The value was “without affecting ghrelin binding affinity”.

**Q.** And the “ghrelin-induced signaling, F272^6.44 to alanine” value (GHSR F272^6.44 mutants; mutating F272^6.44 to alanine)?
**A.** Its value is “reduce ghrelin-induced signaling”.

**Q.** And the “basal- and ghrelin-induced GHSR activity, F272^6.44 to tyrosine” value (GHSR F272^6.44 mutants; replacing phenylalanine with tyrosine, compared with alanine)?
**A.** The value was “far lower impact on both basal- and ghrelin-induced GHSR activity”.

**Q.** What about the “effect of labeling on ghrelin binding and receptor-catalyzed Gq activation” value [2] of the same substance?
**A.** The value was “essentially neutral with regard to the ability of the receptor to bind ghrelin and activate Gq; also recorded: affected neither ghrelin binding nor the receptor-catalyzed Gq activation in a relevant manner”.

**Q.** And the H parameter [3, 8]?
**A.** Its H parameter is 48.83.

**Q.** And the H parameter [3, 9]?
**A.** Its H parameter is 49.38.

**Q.** And the H parameter [3, 10]?
**A.** Its H parameter is 47.22.

**Q.** What about the H parameter [3, 11] of the same substance?
**A.** Its H parameter is 60.136.

**Q.** What about the H parameter [3, 12] of the same substance?
**A.** The H parameter was 58.145.

**Q.** And the H parameter [3, 13]?
**A.** Its H parameter is 61.325.

**Q.** And the H parameter [3, 14]?
**A.** Its H parameter is 49.568.

**Q.** What about the H parameter [3, 15] of the same substance?
**A.** Its H parameter is 47.078.

**Q.** And the H parameter [3, 16]?
**A.** Its H parameter is 48.124.

**Q.** What about the “change in the hydration parameter at position 5.58 upon binding” value [3, 17] of the same substance?
**A.** The value was “increase in the hydration parameter at position 5.58”.

**Q.** What about the H parameter [4, 8] of the same substance?
**A.** The H parameter was 21.07.

**Q.** And the H parameter [4, 9]?
**A.** The H parameter was 20.32.

**Q.** And the H parameter [4, 10]?
**A.** Its H parameter is 19.11.

**Q.** What about the H parameter [4, 11] of the same substance?
**A.** Its H parameter is 15.658.

**Q.** What about the H parameter [4, 12] of the same substance?
**A.** Its H parameter is 15.178.

**Q.** What about the H parameter [4, 13] of the same substance?
**A.** Its H parameter is 13.342.

**Q.** What about the H parameter [4, 14] of the same substance?
**A.** Its H parameter is 18.095.

**Q.** And the H parameter [4, 15]?
**A.** Its H parameter is 20.174.

**Q.** And the H parameter [4, 16]?
**A.** The H parameter was 21.958.

**Q.** And the “change in the hydration parameter at position 6.44 upon binding” value [4, 17]?
**A.** The value was “local hydration at position 6.44 decreased”.

**Q.** And the H parameter ([5]; replicate 1)?
**A.** The H parameter was 24.96.

**Q.** What about the H parameter ([5]; replicate 2) of the same substance?
**A.** Its H parameter is 23.88.

**Q.** What about the H parameter ([5]; replicate 3) of the same substance?
**A.** Its H parameter is 21.19.

**Q.** What about the H parameter ([6]; replicate 1) of the same substance?
**A.** Its H parameter is 68.24.

**Q.** And the H parameter ([6]; replicate 2)?
**A.** The H parameter was 63.92.

**Q.** And the H parameter ([6]; replicate 3)?
**A.** Its H parameter is 67.2.

**Q.** What about the H parameter ([7]; replicate 1) of the same substance?
**A.** Its H parameter is 61.86.

**Q.** And the H parameter ([7]; replicate 2)?
**A.** Its H parameter is 65.16.

**Q.** And the H parameter ([7]; replicate 3)?
**A.** Its H parameter is 62.17.

**Q.** What about the “change in the hydration parameter at V268^6.40” value [7, 17] of the same substance?
**A.** Its value is “no change was observed for V268^6.40”.
